In ChEMBL document CHEMBL1126971, “Structure-activity relationships from molecular similarity matrices” (J Med Chem, 1993) one finds Log 1/K data, which are given here for 23 compounds.

Test [1] deals with T1, Corticosteroid-binding globulin (Homo sapiens) (UniProt P08185).
T1 sequence (whole entry): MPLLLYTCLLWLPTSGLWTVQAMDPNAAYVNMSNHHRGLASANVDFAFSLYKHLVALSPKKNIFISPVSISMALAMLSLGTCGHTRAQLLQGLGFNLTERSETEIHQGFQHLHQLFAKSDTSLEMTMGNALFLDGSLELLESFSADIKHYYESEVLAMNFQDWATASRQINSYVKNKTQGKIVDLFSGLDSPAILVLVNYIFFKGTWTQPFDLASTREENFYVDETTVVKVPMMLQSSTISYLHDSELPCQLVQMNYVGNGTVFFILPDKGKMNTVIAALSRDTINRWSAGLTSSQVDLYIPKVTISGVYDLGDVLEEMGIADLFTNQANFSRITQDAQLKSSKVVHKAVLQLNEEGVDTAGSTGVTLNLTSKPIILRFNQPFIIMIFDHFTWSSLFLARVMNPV

The target of test [2] is T2, Sex hormone-binding globulin (Homo sapiens) (UniProt P04278).
T2 sequence (whole entry): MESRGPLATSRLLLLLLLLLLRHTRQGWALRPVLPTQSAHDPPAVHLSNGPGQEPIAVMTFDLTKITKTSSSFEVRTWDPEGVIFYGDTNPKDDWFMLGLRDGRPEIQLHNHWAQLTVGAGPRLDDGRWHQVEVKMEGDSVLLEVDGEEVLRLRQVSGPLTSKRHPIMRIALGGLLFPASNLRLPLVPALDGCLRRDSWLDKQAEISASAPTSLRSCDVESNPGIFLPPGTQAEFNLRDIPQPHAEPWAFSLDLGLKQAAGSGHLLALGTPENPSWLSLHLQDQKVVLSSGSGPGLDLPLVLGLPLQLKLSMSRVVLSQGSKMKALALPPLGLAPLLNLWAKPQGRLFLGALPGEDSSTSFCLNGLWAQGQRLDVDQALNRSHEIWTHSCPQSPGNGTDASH
Description: Binding affinity against testosterone-binding globulin (TeBG)

The target of test [3] is T1, Corticosteroid-binding globulin (Homo sapiens). This is another data set of the same source.
Test [4] has the same target. Nature of the test: Binding affinity against corticosteroid-binding globulin (CBG).

Molecules are shown by their SMILES.

With `C[C@@H]1C[C@@]2(C)C(=CC1=O)CCC1C3CCC(C(=O)CO)[C@@]3(C)CC(O)[C@@]12F` (some centres not stated), in test [1], the Log 1/K came to 5.8.
As for `C[C@]12CCC(=O)C=C1CC[C@@H]1[C@@H]2[C@@H](O)C[C@@]2(C)[C@H]1CC[C@]2(O)C(=O)CO`, the Log 1/K in test [1] was determined as 7.88; in test [2], 6.2.
For `C[C@]12C=CC(=O)C=C1CC[C@@H]1[C@@H]2[C@@H](O)C[C@@]2(C)[C@H]1CC[C@]2(O)C(=O)CO`, the Log 1/K in test [1] came to 7.51.
In the case of `C[C@]12CCC(=O)C=C1CC[C@@H]1[C@@H]2CC[C@]2(C)C(=O)CC[C@@H]12`, the figures for the Log 1/K in test [1] and in test [2] were 5.76 and 7.46, respectively.
Consider `CC(=O)[C@H]1CC[C@H]2[C@@H]3CCC4=CC(=O)CC[C@]4(C)[C@H]3CC[C@]12C`, for which the Log 1/K in test [2] was 6.94; in test [3], -7.38.
In test [1], `CC(=O)[C@@]1(C)CCC2C3CCC4=CC(=O)CC[C@]4(C)C3CC[C@@]21C` (some centres not stated) registered a Log 1/K of 7.12.
Take `C[C@]12CCC(=O)C=C1CC[C@@H]1[C@@H]2CC[C@@]2(C)[C@H]1CC[C@]2(O)C(=O)CO`: the Log 1/K is 7.88 in test [1] and 7.2 in test [2].
`C[C@]12CCC(=O)C=C1CCC1C3CC[C@H](C(=O)CO)[C@@]34C[C@H](OC4O)C12` (some centres not stated): the Log 1/K in test [4] was found to be 6.28; in test [2] it was 5.32.
Compound `C[C@]12CC[C@H]3[C@@H](CCC4=CC(=O)CC[C@@H]43)[C@@H]1CC[C@@H]2O` gave a Log 1/K in test [1] of 6.14.
On to `C[C@]12CC[C@H]3[C@@H](CCC4=CC(=O)CC[C@@]43C)[C@@H]1CC[C@@H]2C(=O)CO`, for which the Log 1/K in test [1] is 7.65; in test [2] it was 7.38.
On to `CC(=O)[C@@]1(O)CC[C@H]2[C@@H]3CC=C4C[C@@H](O)CC[C@]4(C)[C@H]3CC[C@@]21C`, for which the results for the Log 1/K in test [1] and in test [2] were 5 and 6.36, respectively.
In the case of `C[C@]12CCC(=O)C=C1CC[C@@H]1[C@@H]2C(=O)C[C@@]2(C)[C@H]1CC[C@]2(O)C(=O)CO`, the Log 1/K in test [1] worked out at 6.89; in test [2], 6.43.
For `C[C@]12CC[C@H](O)CC1=CC[C@@H]1[C@@H]2CC[C@]2(C)C(=O)CC[C@@H]12` the same measures were 5 and 7.82.
As for `CC(=O)OCC(=O)[C@@]1(O)CCC2C3CCC4=CC(=O)CC[C@]4(C)C3C(O)C[C@@]21C` (some centres not stated), the Log 1/K in test [1] worked out at 7.55.
Turning to `CC(=O)[C@H]1CC[C@H]2[C@@H]3CCC4=CC(=O)CC[C@@H]4[C@H]3CC[C@]12C`, in test [1], the Log 1/K was 6.82.
Take `CC(=O)[C@@]1(O)CC[C@H]2[C@@H]3CCC4=CC(=O)CC[C@]4(C)[C@H]3CC[C@@]21C`: the figures for the Log 1/K in test [1] and in test [2] were 7.74 and 7, respectively.
In test [1], `CC(=O)[C@H]1CC[C@H]2[C@@H]3CCC4=CC(=O)CC[C@]4(C)[C@H]3C(=O)C[C@]12C` registered a Log 1/K of 6.78.
Turning to `CC(=O)[C@@]1(O)[C@H](O)C[C@H]2[C@@H]3CCC4=CC(=O)CC[C@]4(C)[C@H]3CC[C@@]21C`, in test [1], the Log 1/K was 6.25.
`C[C@]12C[C@H](O)[C@H]3[C@@H](CCC4=CC(=O)CC[C@@]43C)[C@@H]1CC[C@@H]2C(=O)CO`: the values for the Log 1/K in test [1] and in test [2] were 7.88 and 6.34, respectively.
Regarding `C[C@]12CC[C@H](O)C[C@@H]1CC[C@@H]1[C@@H]2CC[C@]2(C)[C@@H](O)CC[C@@H]12`, the Log 1/K in test [1] is 5; in test [2], 9.11.
The like results for `CC(=O)[C@H]1CC[C@H]2[C@@H]3CC=C4C[C@@H](O)CC[C@]4(C)[C@H]3CC[C@]12C` were, in that order, 5.22 and 7.15.
Take `C[C@]12C[C@@H](O)[C@H]3[C@@H](CCC4=CC(=O)CC[C@@]43C)[C@@H]1CC[C@@H]2C(=O)CO`: in test [1], the Log 1/K was 7.2.
Turning to `C[C@]12CC[C@@H]3c4ccc(O)cc4CC[C@H]3[C@@H]1C[C@@H](O)[C@H]2O`, the Log 1/K in test [1] amounted to 5; in test [2] it was 6.63.
